The values that follow come from patent US11999727B2 (Tango Therapeutics, Inc., priority 2020, dated 2024).

A value given as a limit tells only on which side of the number the result lay.

For assay [1], the system named is HAP1 MTAP-deleted cell line. In words: SDMA in-cell western assay, HAP1 MTAP-deleted. Format: cell-based. Particulars: for IC50: Homo sapiens, HAP1, SDMA in-cell western, HAP1 MTAP-deleted; for MTAP intact/deleted ratio: SDMA in-cell western. The method in brief:
(§1)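 Isogenic HAP1 pair: the MTAP-intact line expresses endogenous MTAP, and the deleted line is MTAP-null. Symmetric dimethylarginine was detected by in-cell western and IC50 values derived for each line.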

For assay [2], the system named is HAP1 MTAP-deleted cell line. Briefly: Viability assay, MTAP-deleted cell line. It counts as cell-based. Particulars: Homo sapiens, read-out: HAP1 MTAP deleted viability. The source says:
Table 1 additionally indicates IC50 values in a viability assay for the MTAP-deleted cell line (column 10), indicating the effect of treatment with compound on cell survival.

In assay [3] the test system is HAP1 MTAP-intact cell line. Briefly: SDMA in-cell western assay, HAP1 MTAP-intact. The conditions noted are these: Homo sapiens, HAP1, SDMA in-cell western, HAP1 MTAP-intact; read-out: MTAP HAP1 intact IC50. Format: cell-based. The method in brief: as §1
In assay [4] the target is T1, PRMT5 (Homo sapiens, UniProt O14744).
T1 construct: purchased Viva (custom protein)
T1 sequence (O14744 whole entry): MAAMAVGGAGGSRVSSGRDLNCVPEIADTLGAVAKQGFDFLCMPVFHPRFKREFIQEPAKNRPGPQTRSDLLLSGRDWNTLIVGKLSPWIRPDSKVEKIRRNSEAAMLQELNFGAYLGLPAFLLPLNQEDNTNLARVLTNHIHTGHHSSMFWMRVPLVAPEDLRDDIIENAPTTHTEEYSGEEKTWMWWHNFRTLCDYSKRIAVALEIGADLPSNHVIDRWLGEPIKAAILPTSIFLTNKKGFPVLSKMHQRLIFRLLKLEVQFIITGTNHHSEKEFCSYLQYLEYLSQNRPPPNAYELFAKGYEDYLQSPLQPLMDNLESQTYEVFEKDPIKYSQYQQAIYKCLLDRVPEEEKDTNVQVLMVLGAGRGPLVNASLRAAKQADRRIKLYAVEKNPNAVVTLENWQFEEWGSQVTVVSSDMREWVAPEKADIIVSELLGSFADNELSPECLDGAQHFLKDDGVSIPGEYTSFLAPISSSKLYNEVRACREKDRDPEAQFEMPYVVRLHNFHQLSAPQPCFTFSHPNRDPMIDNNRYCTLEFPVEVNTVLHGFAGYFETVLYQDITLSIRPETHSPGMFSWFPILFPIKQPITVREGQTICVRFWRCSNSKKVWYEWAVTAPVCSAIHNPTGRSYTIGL
T1 sequence (Q9BQA1 whole entry partner): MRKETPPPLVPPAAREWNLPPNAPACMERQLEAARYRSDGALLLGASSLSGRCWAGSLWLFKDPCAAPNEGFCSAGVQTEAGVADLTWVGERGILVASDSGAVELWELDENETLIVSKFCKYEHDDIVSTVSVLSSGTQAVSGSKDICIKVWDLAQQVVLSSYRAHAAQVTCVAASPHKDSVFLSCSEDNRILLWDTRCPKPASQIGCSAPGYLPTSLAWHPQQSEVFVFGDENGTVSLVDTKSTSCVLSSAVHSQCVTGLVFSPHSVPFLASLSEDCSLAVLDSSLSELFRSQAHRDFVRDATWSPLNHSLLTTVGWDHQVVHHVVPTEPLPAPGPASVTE
Briefly: PRMT5 biochemical IC50 assay with SAM as cofactor. The conditions noted are these: PRMT5, SAM as cofactor; read-out: SAM IC50.

Assay [5] has as its target T1, PRMT5. Briefly: PRMT5 biochemical IC50 assay with no cofactor. Particulars: PRMT5, no cofactor. The text has this:
Table 1 indicates IC50 values (μM) against PRMT5 for exemplary compounds in the presence of SAM as cofactor, with no cofactor, and with MTA as cofactor, respectively (columns 4-6). […] Ki values can be calculated from the IC50 values as described in the Examples section. As detailed in the Examples section, for the assay performed in the presence of SAM, IC50=Ki×1.5 (Ki=IC50/1.5).

For assay [6], the target named is T1, PRMT5. Briefly: PRMT5 biochemical IC50 assay with MTA as cofactor. The conditions noted are these: PRMT5, MTA as cofactor; read-out: MTA IC50.
Setting [7] is: read-out: HAP1 MTAP deleted IC50.
The mark [8] stands for this setting: IC50 ratio HAP1 MTAP-intact / HAP1 MTAP-deleted.
Setting [9] is: HAP1, viability assay, HAP1 MTAP-deleted.
The mark [10] stands for this setting: HAP1, viability assay, MTAP-deleted cell line.
The mark [11] stands for this setting: read-out: HAP 1 MTAP deleted IC50.
The mark [12] stands for this setting: HAP1, viability, HAP1 MTAP-deleted cell line.
Where [13] appears, read: read-out: No Cofactor/ rel IC50.

On to `C[C@H]1CC[C@H](c2ccc3[nH]c(=O)ccc3c2)N(C(=O)C(=O)Nc2cncc(C(N)=O)c2)C1` (single isomer, unassigned) [Compound 809], for which the IC50 in assay [1] (setting [7]) was 100 to 1000 nM; in assay [2] (setting [9]), 1000 to 10000 nM; in assay [3], greater than 1000 nM; on PRMT5 [4], 50 to 500 nM; on PRMT5 [5] (read-out: No Cofactor/rel IC50), less than 50 nM; on PRMT5 [6], less than 50 nM. Moreover, the MTAP intact/deleted ratio result in assay [1] (setting [8]) was “A (an IC50 ratio greater than or equal to 10 fold)”.

As for `Cc1cc(NC(=O)C(=O)N2C[C@H](C)C(F)(F)C[C@H]2c2ccccc2)cnc1N` (single isomer, unassigned) [Compound 735], the IC50 in assay [1] (setting [7]) is less than 100 nM; in assay [2] (setting [9]), less than 1000 nM; in assay [3] it was 100 to 1000 nM; at PRMT5 [4], less than 50 nM; at PRMT5 [5] (read-out: No Cofactor/rel IC50), less than 50 nM; at PRMT5 [6], less than 50 nM. Also, in assay [1] (setting [8]), the MTAP intact/deleted ratio result is listed as “A (an IC50 ratio greater than or equal to 10 fold)”.

Take `CNc1cccc([C@H]2CCCCN2C(=O)C(=O)Nc2cnc(N)c(C)c2)c1` (single isomer, unassigned) [Compound 356]: the IC50 was less than 100 nM in assay [1] (setting [7]); 1000 to 10000 nM in assay [2] (setting [10]); greater than 1000 nM in assay [3]; 50 to 500 nM on PRMT5 [4]; 50 to 500 nM on PRMT5 [5] (read-out: No Cofactor/rel IC50); less than 50 nM on PRMT5 [6]. For the same compound, in assay [1] (setting [8]), the MTAP intact/deleted ratio entry is reported as “A (an IC50 ratio greater than or equal to 10 fold)”.

With `CNc1nc2cc([C@H]3CC[C@H](C)CN3C(=O)C(=O)Nc3cncc(C(N)=O)c3)ccc2s1` (single isomer, unassigned) [Compound 862], the IC50 was greater than 1000 nM in assay [1] (setting [7]); greater than 10000 nM in assay [2] (setting [9]); greater than 1000 nM in assay [3]; greater than 500 nM on PRMT5 [4]; greater than 500 nM on PRMT5 [5] (read-out: No Cofactor/rel IC50); greater than 500 nM on PRMT5 [6]. The MTAP intact/deleted ratio result in assay [1] (setting [8]) is “B (an IC50 ratio greater than or equal to 3 fold but lower than 10 fold)”.

Regarding `C[C@@H]1CC[C@@H](c2ccc3[nH]c(=O)ccc3c2)N(C(=O)C(=O)Nc2cncc(C(N)=O)c2)C1` (racemic) [Compound 670, rac-5-(2-((2R,5S)-5-Methyl-2-(2-oxo-1,2-dihydroquinolin-6-yl)piperidin-1-yl)-2-oxoacetamido)nicotinamide], the IC50 is 100 to 1000 nM in assay [1] (setting [11]); 1000 to 10000 nM in assay [2] (HAP1, viability IC50, MTAP-deleted cell line); greater than 1000 nM in assay [3]; 50 to 500 nM on PRMT5 [4]; 50 to 500 nM at PRMT5 [5] (read-out: No Cofactor/rel IC50); less than 50 nM on PRMT5 [6]. Further, in assay [1] (setting [8]), the MTAP intact/deleted ratio entry is on record as “A (an IC50 ratio greater than or equal to 10 fold)”.

With `COc1ncc(NC(=O)C(=O)N2C[C@@H](C)CC[C@@H]2c2ccc3sc([C@H]4CCN(C)C[C@@H]4C)nc3c2)cc1C(N)=O` (racemic) [Compound 1168, 2-methoxy-5-[[2-oxo-2-[rac-(2R,5S)-5-methyl-2-[2-[rac-(3R,4S)-1,3-dimethyl-4-piperidyl]-1,3-benzothiazol-5-yl]-1-piperidyl]acetyl]amino]pyridine-3-carboxamide], the IC50 is less than 100 nM in assay [1] (setting [7]); less than 1000 nM in assay [2] (setting [10]); less than 100 nM in assay [3]; less than 50 nM on PRMT5 [4]; less than 50 nM at PRMT5 [5] (read-out: No Cofactor/rel IC50); less than 50 nM at PRMT5 [6]. In addition, in assay [1] (IC50 ratio HAP1 MTAP-intact vs HAP1 MTAP-deleted), the MTAP intact/deleted ratio entry is recorded as “A (an IC50 ratio greater than or equal to 10 fold)”.

For the compound `Cc1cc(NC(=O)C(=O)N2C[C@@H](C)CC[C@@H]2c2ccc(F)c(F)c2)cnc1N` (single isomer, unassigned) [Compound 472], the IC50 in assay [1] (setting [7]) is greater than 1000 nM; in assay [2] (setting [10]), greater than 10000 nM; in assay [3] it was greater than 1000 nM; on PRMT5 [4], greater than 500 nM; at PRMT5 [5] (read-out: No Cofactor/rel IC50) it was greater than 500 nM; on PRMT5 [6], greater than 500 nM. Moreover, the MTAP intact/deleted ratio entry in assay [1] (setting [8]) was “C (an IC50 ratio of less than 3 fold)”.

In the case of `COc1ncc(NC(=O)C(=O)N2C[C@@H](C)CC[C@@H]2c2ccc3sc([C@H]4CCN(C)C4)nc3c2)cc1C(N)=O` (racemic) [Compound 1260, 2-methoxy-5-[[2-oxo-2-[rac-(2R,5S)-5-methyl-2-[2-[rac-(3S)-1-methylpyrrolidin-3-yl]-1,3-benzothiazol-5-yl]-1-piperidyl]acetyl]amino]pyridine-3-carboxamide], the IC50 was less than 100 nM in assay [1] (setting [11]); less than 1000 nM in assay [2] (setting [12]); less than 100 nM in assay [3]; less than 50 nM at PRMT5 [4]; less than 50 nM at PRMT5 [5] (setting [13]); less than 50 nM on PRMT5 [6]. Moreover, the “MTAP intact/deleted ratio” value in assay [1] (setting [8]) is reported as “A (an IC50 ratio greater than or equal to 10 fold)”.

For `C[C@@H]1CN(C(=O)C(=O)Nc2cncc(C(N)=O)c2)[C@@H](c2ccc(F)cc2)CC1(F)F` (single isomer, unassigned) [Compound 718], the IC50 was greater than 1000 nM in assay [1] (setting [7]); greater than 10000 nM in assay [2] (setting [9]); greater than 1000 nM in assay [3]; greater than 500 nM on PRMT5 [4]; greater than 500 nM at PRMT5 [5] (read-out: No Cofactor/rel IC50); greater than 500 nM on PRMT5 [6]. In addition, the MTAP intact/deleted ratio result in assay [1] (setting [8]) is “C (an IC50 ratio of less than 3 fold)”.

Take `Cc1cc(NC(=O)C(=O)N2C[C@H](C)CC[C@H]2c2ccc3sc(N)nc3c2)cnc1C` (racemic) [Compound 920, 2-[(2R,5S)-2-(2-amino-1,3-benzothiazol-5-yl)-5-methyl-1-piperidyl]-N-(5,6-dimethyl-3-pyridyl)-2-oxo-acetamide]: the IC50 in assay [1] (setting [11]) was less than 100 nM; in assay [2] (setting [10]), 1000 to 10000 nM; in assay [3], greater than 1000 nM; at PRMT5 [4], 50 to 500 nM; on PRMT5 [5] (read-out: No Cofactor/rel IC50), 50 to 500 nM; on PRMT5 [6], 50 to 500 nM. In addition, the MTAP intact/deleted ratio entry in assay [1] (setting [8]) is reported as “A (an IC50 ratio greater than or equal to 10 fold)”.

Consider `NC(=O)c1cncc(NC(=O)C(=O)N2CCCCC2C2CCCC2)c1` (stereo not drawn) [Compound 240, 5-(2-(2-cyclopentylpiperidin-1-yl)-2-oxoacetamido)nicotinamide], for which the IC50 in assay [1] (setting [7]) is 100 to 1000 nM; in assay [2] (setting [10]), greater than 10000 nM; in assay [3] it was greater than 1000 nM; on PRMT5 [4] it was 50 to 500 nM; on PRMT5 [5] (read-out: No Cofactor/rel IC50), 50 to 500 nM; at PRMT5 [6], less than 50 nM. In addition, in assay [1] (setting [8]), the MTAP intact/deleted ratio result is reported as “A (an IC50 ratio greater than or equal to 10 fold)”.

As to `C[C@@H]1CC[C@@H](C2CCC(F)(F)CC2)N(C(=O)C(=O)Nc2cncc(C(N)=O)c2)C1` (single isomer, unassigned) [Compound 486], the IC50 in assay [1] (setting [7]) is greater than 1000 nM; in assay [2] (setting [10]) it was greater than 10000 nM; in assay [3], greater than 1000 nM; on PRMT5 [4] it was greater than 500 nM; at PRMT5 [5] (read-out: No Cofactor/rel IC50), greater than 500 nM; at PRMT5 [6], greater than 500 nM. Moreover, the MTAP intact/deleted ratio entry in assay [1] (setting [8]) was “C (an IC50 ratio of less than 3 fold)”.

As to `Cc1cc(NC(=O)C(=O)N2C[C@@H](C)[C@H](OC(C)C)C[C@@H]2c2ccccc2)cnc1N` (single isomer, unassigned) [Compound 1327], the IC50 in assay [1] (setting [11]) was greater than 1000 nM; in assay [2] (setting [12]), 1000 to 10000 nM; in assay [3], greater than 1000 nM; on PRMT5 [4], greater than 500 nM; on PRMT5 [5] (setting [13]) it was greater than 500 nM; on PRMT5 [6] it was greater than 500 nM.

As for `NC(=O)c1cncc(NC(=O)C(=O)N2CCCCC2c2cccs2)c1` (stereo not drawn) [Compound 120, 5-[[2-Oxo-2-[2-(2-thienyl)-1-piperidyl]acetyl]amino]pyridine-3-carboxamide], the IC50 in assay [1] (setting [11]) is 100 to 1000 nM; in assay [2] (setting [10]), greater than 10000 nM; in assay [3], greater than 1000 nM; at PRMT5 [4], 50 to 500 nM; at PRMT5 [5] (setting [13]), 50 to 500 nM; on PRMT5 [6] it was less than 50 nM. Also, the “MTAP intact/deleted ratio” value in assay [1] (setting [8]) is on record as “A (an IC50 ratio greater than or equal to 10 fold)”.

Turning to `CCc1cc(NC(=O)C(=O)N2C[C@H](C)CC[C@H]2c2ccc3sc(C)nc3c2)cnc1N` (single isomer, unassigned) [Compound 801], the IC50 in assay [1] (setting [7]) was greater than 1000 nM; in assay [2] (setting [9]), greater than 10000 nM; in assay [3] it was greater than 1000 nM; on PRMT5 [4], greater than 500 nM; on PRMT5 [5] (read-out: No Cofactor/rel IC50), greater than 500 nM; on PRMT5 [6], greater than 500 nM. Besides, in assay [1] (setting [8]), the MTAP intact/deleted ratio entry is listed as “B (an IC50 ratio greater than or equal to 3 fold but lower than 10 fold)”.

Take `C[C@@H]1CC[C@@H](c2ccc3[nH]ncc3n2)N(C(=O)C(=O)Nc2cncc(C(N)=O)c2)C1` (single isomer, unassigned) [Compound 787]: the IC50 in assay [1] (setting [7]) is greater than 1000 nM; in assay [2] (setting [9]), greater than 10000 nM; in assay [3], greater than 1000 nM; at PRMT5 [4] it was greater than 500 nM; on PRMT5 [5] (read-out: No Cofactor/rel IC50) it was greater than 500 nM; on PRMT5 [6], greater than 500 nM. Also, the MTAP intact/deleted ratio result in assay [1] (setting [8]) is “C (an IC50 ratio of less than 3 fold)”.
